Data set [1] concerns kainate (KA) model of temporal lobe epilepsy. Details: method as in PMID 34087381. Conditions: treating for a week, repeated oral dosing; cited from earlier work.
The test system of data set [2] is ABCB1. Details: method as in PMID 22623106. The note with it: cited from earlier work.
Data set [3] in a line: Stability at room temperature in solution or in diet by LC-MS/MS. Type of data set: physicochemical. The method, then:
Samples were submitted to the W.M. Keck Metabolomics Research Laboratory (Office of Biotechnology, Iowa State University, Ames, IA) for targeted saracatinib LC–MS/MS quantification. One or two food pellets (1.5–3 g) were homogenized by mortar-and-pestle before being transferred and weighed in glass tubes with Teflon-lined screw caps. A reagent control sample was generated for each sample batch which was prepared in the same fashion as the samples. The weighed samples were then spiked with the internal standard, 250 μg of S-Hexylglutathione (Sigma-Aldrich CO., St. Louis, MO), added as 1.0 mL of from a 0.25 mg/mL solution in LC–MS grade 9:1 methanol: acetonitrile (Fisher Scientific, Waltham, MA). The extraction was initiated by the addition of 8 mL of 90% LC–MS grade methanol with 10% LC–MS grade water (Fisher Scientific, Waltham, MA). […]
LC separations were performed with an Agilent Technologies 1,290 Infinity Binary Pump UHPLC instrument equipped with an Agilent Technologies Eclipse C18 1.8 μm 2.1 mm × 100 mm analytical column that was coupled to an Agilent Technologies 6,540 UHD Accurate-Mass Q-TOF mass spectrometer (Agilent Technologies, Santa Clara, CA). […] Saracatinib was detected using electrospray ionization in positive ionization mode. […] During LC–MS data acquisition, reference masses were monitored for continuous mass calibration: m/z 121.050873 with m/z 922.009698. […]

Data set [4] can be described thus: 7-day repeated daily oral dosing study: serum and hippocampal concentrations. Type of data set: in vivo, Sprague Dawley rats. The method, then: (§1) The animals were randomized into four experimental groups (n = 4–8). In group 1 (24 h study; Figure 1A), eight animals received a single oral gavage of saracatinib (20 mg/kg), and the blood sampling was done at 0.5, 1, 2, 4, 6, 8, 12, and 24 h post-treatment. Four animals each were euthanized at 4 h and 24 h, respectively. In group 2 (7-day repeated oral dosing study; Figure 1B), eight animals received repeated daily oral dosing of saracatinib (20 mg/kg of rat) at 24 h intervals; the blood sampling was done daily at 24 h intervals before the next dosing. Four animals were euthanized 24 h after the third repeated oral dosing, i.e., day 3 and the other four animals were euthanized at day 7. Group 3 (7-day SAR-in-Diet study; Figure 1C), received a single oral gavage of saracatinib (20 mg/kg of rat) followed by 24 h later SAR-in-Diet for 7 days (260 ppm). The blood sampling was done at 24 h post oral and daily at 24 h intervals for 7 days while the animals were on SAR-in-Diet. Four animals each were euthanized on day 3 and 7. Group 4 (Figure 1D) included four animals that were given 7 repeated doses of oral saracatinib (20 mg/kg/day for a week) followed by ad-libitum SAR-in-Diet at varying concentrations fed for up to 18 weeks (260 ppm diet for 2 weeks, 210 ppm diet for a week, 160 ppm for 4 weeks, and 50 ppm diet for 11 weeks) The tapering concentrations of saracatinib in the diet from 260 to 50 ppm was done to target a daily saracatinib dose rate in the range of 20–5 mg/kg respectively, in a 24 h feeding cycle. Blood samples were collected at the end of each diet change.
(§2) Samples were submitted to the W.M. Keck Metabolomics Research Laboratory (Office of Biotechnology, Iowa State University, Ames, IA) for targeted saracatinib LC–MS/MS quantification. Serum and hippocampus preparations were conducted using a modified version of the previously available extraction and sample preparation methods previously established ([18], [19]). 50–75 μL or 50–75 mg wet weight of each sample was added to microcentrifuge tubes. […]

A short description of data set [5]: Hippocampal concentrations after a single oral dose (24 h study). The class given is in vivo, Sprague Dawley rats. Conditions: single oral dose 20 mg/kg. The procedure: as §1, §2
The subject of data set [6] is organophosphate (OP) induced epilepsy models. Details: method as in PMID 35052568. The note with it: treatment for a week; cited from earlier work.
Details of data set [7]: method as in PMID 19775203. The note with it: healthy humans, 250 mg/day once daily for 10–14 days; cited from earlier work.
The nature of data set [8]: Serum pharmacokinetics after a single oral dose (24 h study), LC-MS/MS, noncompartmental analysis. The class given is in vivo, Sprague Dawley rats. The method, then: Twenty eight adult male Sprague Dawley rats (8 weeks old; 250-300 g; Charles River, United States) were used in the study. Animals were housed in individual cages with a 12-h light–dark cycle in an enriched environment. The experiments were conducted after 2–3 days of acclimatization as per the approved protocols by the Institutional Animal Care and Use Committees (IACUC protocol: 21–109) and complied with the NIH ARRIVE Guidelines for the Care and Use of Laboratory Animals. Blood sampling was done by retro-orbital puncture as per IACUC protocol. Maximal blood collection was limited to less than 7.5% of the […] in one week. The serum was separated by centrifugation at 1,000–1,500 × g for 10 min and stored at −80°C until further analysis. All animals were euthanized at the end of the study with pentobarbital sodium and phenytoin sodium (100 mg/kg, i.p.) as per the American Veterinary Medical Association Guidelines for euthanasia. Tissue samples were collected and stored at −80°C until further analysis.
as §1
Samples were submitted to the W.M. Keck Metabolomics Research Laboratory (Office of Biotechnology, Iowa State University, Ames, IA) for targeted saracatinib LC–MS/MS quantification. Serum and hippocampus preparations were conducted using a modified version of the previously available extraction and sample preparation methods previously established ([18], [19]). 50–75 μL or 50–75 mg wet weight of each sample was added to microcentrifuge tubes. A Reagent control sample was generated for each sample batch, 75 μL of 0.9% NaCl which was extracted in the same fashion as the samples. The weighed samples were then spiked with the internal standard, 1.25 μg of S-Hexylglutathione (Sigma-Aldrich CO., St. Louis, MO), added as 10 μL of from a 0.125 mg/mL solution in LC–MS grade 9:1 methanol: acetonitrile (Fisher Scientific, Waltham, MA). The extraction was initiated by the addition of 0.4 mL of 90% ice-cold LC–MS grade methanol with 10% LC–MS grade water (Fisher Scientific, Waltham, MA). For the hippocampus samples, after adding the 90% methanol to the samples, two 2.4 mm metal beads were added to each sample, the tissue was then homogenized using a Bead Mill 24 Homogenizer (Thermo Fisher Scientific, Inc., Waltham, MA, United States). […]

[9] abbreviates: male, Sprague Dawley, single oral dose 20 mg/kg, rat serum, median, n=4.

Take `CN1CCN(CCOc2cc(OC3CCOCC3)c3c(Nc4c(Cl)ccc5c4OCO5)ncnc3c2)CC1` [saracatinib, Saracatinib]: the “Long-term effects (reactive gliosis, neurodegeneration, epileptiform spiking, spontaneously recurring seizures)” value in data set [1] is on record as “sufficient to mitigate long-term effects”. Besides, in data set [2], the “Effect on ABCB1” value was “only inhibits ABCB1 transport function, without altering ABCB1 expression or AKT phosphorylation”. Further, the “Time stable at room temperature” value in data set [3] is listed as > 4 weeks. Besides, the “Stability at room temperature (percent)” value in data set [3] (>4 weeks) is on record as 97 ± 1.56%. Further, the concentration at 3 day in data set [4] (male, Sprague Dawley, rat, hippocampus, repeated oral dosing 20 mg/kg/day, day 3, read-out: Hippocampal saracatinib concentration) worked out at 239 ± 143 ng/g. Besides, the concentration at 7 day in data set [4] (male, Sprague Dawley, rat, hippocampus, repeated oral dosing 20 mg/kg/day, day 7, read-out: Hippocampal saracatinib concentration) was found to be 271 ± 62.3 ng/g. The “Serum saracatinib concentration (trough, 24 h after dose)” value in data set [4] (repeated daily oral dosing 20 mg/kg, first three days) is given as ~ 100 ng/mL. For the same molecule, in data set [5] (male, Sprague Dawley, rat, hippocampus, 4 h, read-out: Hippocampal level), the concentration at 4 h is > 500 ng/g. Also, the “Hippocampal versus serum concentrations” value in data set [5] (4 h and 24 h) was “higher than the serum concentrations”. For the same molecule, in data set [5] (24 h), the “Hippocampal concentration at 24 h compared to 4 h” value is listed as “dropped to nearly half”. Also, the Protective effects result in data set [6] is given as “limited”. Besides, in data set [7], the T1/2 is 40 h and the Tolerability entry is listed as “well tolerated”. Also, the “Time saracatinib was detected in the serum” value in data set [8] (after a single oral dose 20 mg/kg) was “up to 24 h”. In data set [8] (male, Sprague Dawley, rat, serum, po, 20 mg/kg, single oral dose 20 mg/kg, rat serum, median, n=4), the time to peak (Tmax) came to 6 h. In addition, in data set [8] (male, Sprague Dawley, single oral dose 20 mg/kg, rat serum, 0 to 24 h, median, n=4, read-out: AUC (0-tlast)), the AUC(0-t) stood at 6990 ng·h/mL. Also, in data set [8] (setting [9]), the AUC(0-inf) is 7060 ng·h/mL, the apparent clearance CL/F is 47.2 mL/min/kg, the Cmax amounted to 954 ng/mL and the Vd/F was 15.6 L/kg. In data set [8] (setting [9]), this molecule had a half-life of 4.12 h and a k el of 5e-05 s⁻¹.

One may read the Tmax as the time from dosing to the highest level. The AUC(0-inf) is the area under the concentration-time curve extrapolated to infinity. For orientation: CL/F means the apparent clearance, not corrected for the fraction that reaches the circulation. Usually Cmax stands for the highest concentration seen after dosing. Usually Vd/F stands for the volume of distribution divided by bioavailability. Usually half-life stands for the time in which the quantity being followed falls by half. Read a high half-life as slow decline.

The record behind these values is paper PMC10666625, “Exploring the benefits of in-diet versus repeated oral dosing of saracatinib (AZD0530) in chronic studies: insights into pharmacokinetics and animal welfare” (Frontiers in Veterinary Science, 2023).
